# Measurements reported in patent publication US7781565B2 (priority 2006, dated 2010).
# System: NCI-60 cell lines
# Assay type: cell-based, human
Substance,Cell Line the peptide is associated with (peptide recovered from phage library selection on this NCI-60 cell line),Cell Line (NCI-60 cell line the peptide and its motif are associated with),Cell Line (NCI-60 cell line the peptide is associated with),Cell Line with which the peptide (and its tripeptide motif) is associated
GRLSFGV,ACHN Renal,,,
FLRGVEL,,SK-OV-3-3 Ovarian,,
WGLVRHA,,,SF-268 CNS,
FRALGGL,,,SNB-75 CNS,
RGLRSVN,,,,H226-Lung
FRAASLL,MDA-MB-231 Breast,,,
SEDEGAG,,,,H322-Lung
LLLRSGG,,,,RPMI-8226-Leukemia
RAVGRVA,,,,HL-60-Leukemia
WSGVSRL,,,HCT-15 Colon,
VLASLSG,,IGROV1 Ovarian,,
QLVSGSL,,,HCT-116 Colon,
SGGLAVA,,UACC 257 Melanoma,,
HRVSESV,,OVCAR-5 Ovarian,,
RGPSQVL,,PC3 Prostate,,
SGVSGLS,,,,EKVX-Lung
GRLLAGG,,,,Hop-92-Lung
AALLRAV,,OVCAR-4 Ovarian,,
RLLSEGY,,,SNB-75 CNS,
RSWNAGR,UO31 Renal,,,
RRPGLRS,,,HT-29 Colon,
SGVRPVI,,SK-MEL-2 Melanoma,,

Substance,Cell Line the peptide is associated with (peptide recovered from phage library selection on this NCI-60 cell line),Cell Line (NCI-60 cell line the peptide and its motif are associated with),Cell Line (NCI-60 cell line the peptide is associated with),Cell Line with which the peptide (and its tripeptide motif) is associated
EGSGVDC,,,,RPMI-8226-Leukemia
AAGREFR,,,,Hop-62-Lung
SGIGSGG,,,,Hop-92-Lung
TDLAGLH,,,,RPMI-8226-Leukemia
FSLGSSP,UO31 Renal,,,
RGGRSPS,,,HT-29 Colon,
LVRSSGL,,,,Hop-92-Lung
IAMAGLR,,SK-MEL-2 Melanoma,,
AFFMGLR,ACHN Renal,,,
FDARGGL,,,,CCRF-CEM Leukemia
PGAVLTV,,,COLO-205-Colon,
LRYDLRS,,,,RPMI-8226-Leukemia
GAYRLVS,,,,CCRF-CEM Leukemia
GSSLSRP,RXF393 Renal,,,
PRGMARG,BT-549 Breast,,,
SDENGRL,,,,HL-60-Leukemia
AGGGPPA,,,,EKVX-Lung
LLRSSLG,,,HCT-116 Colon,
GSVLGAL,,,HT-29 Colon,
GGGSDGV,,,,CCRF-CEM Leukemia
GVSGLSR,,DU-145 Prostate,,
DVSGRVP,,,,HL-60-Leukemia

Substance,Cell Line the peptide is associated with (peptide recovered from phage library selection on this NCI-60 cell line),Cell Line (NCI-60 cell line the peptide and its motif are associated with),Cell Line (NCI-60 cell line the peptide is associated with),Cell Line with which the peptide (and its tripeptide motif) is associated
GRAGGNG,,M14 Melanoma,,
GGSGIGS,,,,Hop-92-Lung
CAGRARR,,,SNB-75 CNS,
AIMGAGL,,OVCAR-8 Ovarian,,
GVLTIGA,BT-549 Breast,,,
GSVFGTP,UO31 Renal,,,
TNRFARG,T-47D Breast,,,
GGLEQDG,SN12C Renal,,,
SDRGLVV,,,HCT-15 Colon,
VMDRGVA,,UACC 257 Melanoma,,
SRAVIRL,,OVCAR-5 Ovarian,,
LVRASNG,,SK-MEL-28 Melanoma,,
AVSGRGW,,,,Molt-4-Leukemia
SERSSLG,,,,Hop-92-Lung
VGRGRLH,,,,EKVX-Lung
GPGGSKR,SN12C Renal,,,
RAVWRAS,,SK-MEL-2 Melanoma,,
LACRGPS,,PC3 Prostate,,
FWRGSVP,,,,A549-Lung
VMWVARG,,,KM-12C Colon,
LIGGRNA,,,HCT-116 Colon,
GGSVRHV,,,,RPMI-8226-Leukemia

Substance,Cell Line the peptide is associated with (peptide recovered from phage library selection on this NCI-60 cell line),Cell Line (NCI-60 cell line the peptide and its motif are associated with),Cell Line (NCI-60 cell line the peptide is associated with),Cell Line with which the peptide (and its tripeptide motif) is associated
PVSDGLV,,SK-OV-3-3 Ovarian,,
GAVLTSC,BT-549 Breast,,,
DGAVILH,,UACC 257 Melanoma,,
VEYAAGR,,,,CCRF-CEM Leukemia
RVSGDGK,,SK-OV-3-3 Ovarian,,
VVASLPH,,,HT-29 Colon,
GGLRVGG,,PC3 Prostate,,
LPGRLRV,,OVCAR-5 Ovarian,,
VARSSFR,,IGROV1 Ovarian,,
GRVTWRS,,OVCAR-5 Ovarian,,
LRSWLLF,,,HT-29 Colon,
SGGDGSV,,,SNB-75 CNS,
AVRGGRP,,,,Hop-92-Lung
PVGGVLL,,,,A549-Lung
RAVLELW,,SK-MEL-28 Melanoma,,
GRVPGFE,,,,H322-Lung
GLGRSVN,T-47D Breast,,,
TRLSFRH,,SK-OV-3-3 Ovarian,,
AFGGGSM,SN12C Renal,,,
MGPSARW,BT-549 Breast,,,
WWAAVPG,SN12C Renal,,,
LGSSSHI,NCI/ADR-RES Breast,,,

Substance,Cell Line the peptide is associated with (peptide recovered from phage library selection on this NCI-60 cell line),Cell Line (NCI-60 cell line the peptide and its motif are associated with),Cell Line (NCI-60 cell line the peptide is associated with),Cell Line with which the peptide (and its tripeptide motif) is associated
GRRVSLV,,,,SR Leukemia
TQVEARG,HS 578 T Breast,,,
EHYRLRS,,,HT-29 Colon,
RQDGGLY,,PC3 Prostate,,
NMGAVGS,,DU-145 Prostate,,
EFTRRAS,,,,A549-Lung
LSRGSVA,,M14 Melanoma,,
GVAGGAT,,,SW620-Colon,
HAWDRGV,MDA-MB-231 Breast,,,
FIAGGVG,ACHN Renal,,,
WRARASP,,UACC62 Melanoma,,
SRFGPSV,,,,H322-Lung
KGSVLML,NCI/ADR-RES Breast,,,
YWQHRVS,,,HCT-116 Colon,
RGVSLKG,,,,H226-Lung
RTWGGRM,,M14 Melanoma,,
GYARGSG,RXF393 Renal,,,
DRGLGMS,,786-0 Renal,,
LLSTSIR,,,,RPMI-8226-Leukemia
YLGLGGL,,DU-145 Prostate,,
ESATGVS,MDA-MB-231 Breast,,,
EADPGAV,,UACC 257 Melanoma,,

Substance,Cell Line the peptide is associated with (peptide recovered from phage library selection on this NCI-60 cell line),Cell Line (NCI-60 cell line the peptide and its motif are associated with),Cell Line (NCI-60 cell line the peptide is associated with),Cell Line with which the peptide (and its tripeptide motif) is associated
SGSVVQR,,,LOX-IMVI Melanoma,
GVNGSVS,,SK-MEL-28 Melanoma,,
GLVRGTA,,,,Molt-4-Leukemia
TVGSGCL,,,HCT-116 Colon,
GGRPTVT,HS 578 T Breast,,,
RGSWAGV,,,HT-29 Colon,
RMLVSSF,,UACC 257 Melanoma,,
SGARLRS,T-47D Breast,,,
VAELLSM,,OVCAR-5 Ovarian,,
AATRAGS,,UACC 257 Melanoma,,
AGRRFGG,,,,EKVX-Lung
FAGAGVR,,SK-OV-3-3 Ovarian,,
AVYVGRL,NCI/ADR-RES Breast,,,
PAILRVR,UO31 Renal,,,
NSVRGSR,,SK-OV-3-3 Ovarian,,
AYYSLRS,,,KM-12C Colon,
GVRGAAR,,,HCT-15 Colon,
YAAGGST,A498 Renal,A498 Renal,,
LTAAVMV,,,SNB-75 CNS,
ASGTLLR,,SK-MEL-28 Melanoma,,
NGGRVLS,ACHN Renal,,,
WRLSREG,,SK-MEL-2 Melanoma,,
